PMC9114115, “Property space mapping of Pseudomonas aeruginosa permeability to small molecules” (Scientific Reports, 2022)
Several values for one entry are separate records, joined by “and”; a condition that tells them apart may be missing. Equal values may be shown once. Where a name gives a salt, the structure may show the parent alone.

Tests used:
P. aeruginosa PAO1 cells = test: LC–MS quantification of intracellular accumulation, PAO1; conditions: 10-80 µM; for Concentration slopes of accumulation, PAO1_1 min: 1 min incubation; for Concentration slopes of accumulation, PAO1_40 min: 40 min incubation;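 on all read-outs here: slope of accumulation versus external concentration fitted as a line through zero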
Description: (§1) PAO1-Pore and PΔ3-Pore were grown at 37 °C overnight with shaking at 225 rpm in 50 mM MOPS-M9 (pH 7.2) Minimal Medium supplemented with 1% glycerol[42],[43].
(§2) The next day, cells were sub-cultured (1.5:100) in fresh MOPS-M9 medium and grown for 16 h. The cultures were then split into two flasks and one of them was induced with 0.1 mM IPTG. Cells incubated for additional 4 h until OD600 reached ~ 1.0 and harvested by centrifugation at 3,275xg for 20 min in RT, washed and concentrated 10X in the spent medium. Assays were performed in 96-well plates in a final volume of […]. Cells were incubated with 10, 20, 40, 80 µM of compounds and after 1- and 40-min incubation at RT, 100 µL cell aliquots were collected by vacuum filtration onto 1.0 µm Glass Fiber Type B filters. For no-cell controls, compounds were diluted to 10, 20, 40, 80 µM final concentration in the same medium, incubated for 1 min and 40 min and filtered onto the same plates. The cell loaded and cell-free filters were dried, removed from plates and placed into 100% methanol at -80 °C for at least 10 min. Filter-bound material was extracted by water bath sonication for 1 min. Cell and filter debris were separated by ultracentrifugation at 45,000 rpm (TLA55 rotor, Beckman) for 8 min at 16 °C and the pellet re-extracted with 80% methanol in water by sonication for 15 min followed by ultracentrifugation at the same conditions. Supernatants from two extractions were combined. For the compound quantification, 5 µL of solution was analyzed in triplicate.
(§3) Calibration curves for MS analyses of compounds were generated in the same experiment by mixing compound at increasing concentrations with the sonicated PAO1 cell extracts. […] Azithromycin was used as a positive control in all experiments.
(§4) Samples were processed in positive ion mode. An Eclipse plus C18 Rapid Resolution HD column (1.8 μm, 2.1 × 50 mm, Agilent, USA) was used for separation. The flow rate was 0.6 mL/min using the following gradient: 0 to 1 min (0- 20% ACN), 1 to 4 min (20- 80% ACN), 4 to 5.1 min (80–100% ACN), 5.1 to 6.30 (100% ACN). Solvents contained 0.1% formic acid to promote positive ion formation in the electrospray. […] Data were analyzed using Agilent Masshunter workstation quantitative analysis v. B.10 software.

[1] = tested on: P. aeruginosa PΔ3-Pore cells; test: LC–MS quantification of intracellular accumulation, PΔ3-Pore; conditions: 10-80 µM; for Concentration slopes of accumulation, PΔ3-Pore_1 min: 1 min incubation; for Concentration slopes of accumulation, PΔ3-Pore_40min: 40 min incubation;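 on all read-outs here: slope of accumulation versus external concentration fitted as a line through zero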
Description: as §1, §2, §3, §4

P. aeruginosa PΔ3 cells = conditions: 10-80 µM; for Concentration slopes of accumulation, PΔ3_1 min: 1 min incubation; for Concentration slopes of accumulation, PΔ3_40 min: 40 min incubation;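 on all read-outs here: slope of accumulation versus external concentration fitted as a line through zero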
Description: as §1, §2, §3, §4

P. aeruginosa PΔ3-Pore = test: MIC by two-fold dilution, barrierless PΔ3-Pore; assay type: cell-based, Pseudomonas aeruginosa
Description: (§5) In all experiments, P. aeruginosa PAO1-Pore (PAO1 attTn7::PLAC-fhuA) and PΔ3-Pore (ΔmexAB ΔmexCD ΔmexXY attTn7::PLAC-fhuA) strains were used[29]. Strains were routinely grown in Luria–Bertani (LB) or MOPS-M9 medium at 37 °C with aeration. MICs shown in Tables 1 and 2 were determined by a two-fold dilution method in LB broth and MOPS-M9 medium, respectively, following the previously described protocol.

[2] = tested on: P. aeruginosa PAO1-Pore cells; test: LC–MS quantification of intracellular accumulation, PAO1-Pore; conditions: 10-80 µM; for Concentration slopes of accumulation, PAO1-Pore_1 min: 1 min incubation; for Concentration slopes of accumulation, PAO1-Pore_40 min: 40 min incubation;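 on all read-outs here: slope of accumulation versus external concentration fitted as a line through zero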
Description: as §1, §2, §3, §4

P. aeruginosa PAO1 = test: MIC by two-fold dilution, wild type PAO1; assay type: cell-based, Pseudomonas aeruginosa; conditions: Pseudomonas aeruginosa; PAO1, MOPS-M9 medium; read-out: MICs
Description: as §5

P. aeruginosa PAO1-Pore = test: MIC by two-fold dilution, hyperporinated PAO1-Pore; assay type: cell-based, Pseudomonas aeruginosa
Description: as §5

Row | SMILES | Concentration slopes of accumulation, PAO1_1 min (P. aeruginosa PAO1 cells) | Concentration slopes of accumulation, PAO1_40 min (P. aeruginosa PAO1 cells) | Concentration slopes of accumulation, PΔ3-Pore_1 min [1] | Concentration slopes of accumulation, PΔ3-Pore_40min [1] | Concentration slopes of accumulation, PΔ3_1 min (P. aeruginosa PΔ3 cells) | Concentration slopes of accumulation, PΔ3_40 min (P. aeruginosa PΔ3 cells) | MIC (P. aeruginosa PΔ3-Pore; Pseudomonas aeruginosa, read-out: MICs, P∆3-Pore, MOPS-M9 medium) [µg/mL] | MICs (P. aeruginosa PΔ3-Pore; P∆3-Pore, LB broth, Table S2) | Concentration slopes of accumulation, PAO1-Pore_1 min [2] | Concentration slopes of accumulation, PAO1-Pore_40 min [2] | MIC (P. aeruginosa PAO1) | MICs (P. aeruginosa PAO1-Pore; PAO1-Pore, LB broth, Table S2) | MIC (P. aeruginosa PAO1-Pore; Pseudomonas aeruginosa, PAO1, read-out: MICs)
1 | CCn1cc(C(=O)O)c(=O)c2cc(F)c(N3CCN(C)CC3)cc21 [OU-0000619, PEFLOXACINE MESYLATE] | 14.50 | 14.54 | 32.20 | 39.09 | 21.54 | 34.80 | 0.03 | 0.0039 | 25.74 | 33.41 | 2 µM and 0.9 µg/mL | 0.25 | 0.25 µM and 0.11 µg/mL
2 | COc1ccc(CCN(C)CCCC(C#N)(c2ccc(OC)c(OC)c2)C(C)C)cc1OC (stereo not shown) [OU-0000734, Verapamil HCl] | 12.96 | 13.17 | 17.77 | 18.38 | 12.95 | 12.00 | – | – | 16.77 | 15.63 | – | – | –
3 | O=C1CC2(CCCC2)CC(=O)N1CCCCN1CCN(c2ncccn2)CC1 [OU-0000735, Buspirone HCl] | 6.08 | 7.21 | 9.57 | 9.56 | 6.98 | 6.60 | – | – | 7.76 | 7.56 | – | – | –
4 | O=C(c1ccc(OCCN2CCCCC2)cc1)c1c(-c2ccc(O)cc2)sc2cc(O)ccc12 [OU-0000741, Raloxifene HCl] | 45.85 | 26.99 | 83.30 | 77.54 | 69.39 | 35.59 | – | – | 56.66 | 52.80 | – | – | –
5 | COCCCC/C(=N\OCCN)c1ccc(C(F)(F)F)cc1 [OU-0000742, Fluvoxamine] | 3.55 | 4.45 | 6.28 | 6.18 | 4.15 | 4.97 | – | – | 6.04 | 6.15 | – | – | –
6 | CC(CCc1ccccc1)NCC(O)c1ccc(O)c(C(N)=O)c1 (stereo not shown) [OU-0000748, Labetalol HCl] | 15.94 | 14.89 | 23.35 | 22.27 | 17.87 | 22.85 | – | – | 21.98 | 21.99 | – | – | –
7 | CC(Cc1ccc(O)cc1)NCC(O)c1cc(O)cc(O)c1 (stereo not shown) [OU-0000755, Fenoterol HBr] | 1.15 | 1.72 | 2.02 | 2.24 | 2.24 | 1.99 | – | – | 1.22 | 2.13 | – | – | –
8 | CCOC(=O)NC(=S)Nc1ccccc1NC(=S)NC(=O)OCC [OU-0000837, Thiophanate] | 3.24 | 3.72 | 14.84 | 13.42 | 3.05 | 1.80 | – | – | 3.05 | 1.80 | – | – | –
9 | CNC(=C[N+](=O)[O-])NCCSCc1ccc(CN(C)C)o1 [OU-0000840, Ranitidine HCl] | 3.41 | 2.83 | 5.13 | 1.37 | 2.62 | 3.53 | – | – | 4.44 | 5.25 | – | – | –
10 | NC(N)=Nc1nc(CSCCC(N)=NS(N)(=O)=O)cs1 [OU-0000841, Famotidine] | 4.64 | 5.28 | 6.27 | 4.45 | 4.40 | 4.38 | – | – | 3.94 | 2.86 | – | – | –
11 | CC[C@H]1CN2CCc3cc(OC)c(OC)cc3[C@@H]2C[C@@H]1C[C@H]1NCCc2cc(OC)c(OC)cc21.Cl.Cl [OU-0032504, Emetine DIHCl] | 0.61 | 0.65 | 1.71 | 1.61 | 1.07 | 0.76 | – | – | 1.29 | 1.17 | – | – | –
12 | CCN1CCCC1CNC(=O)c1cc(S(N)(=O)=O)ccc1OC.Cl (stereo not shown) [OU-0032505, Sulpiride HCl] | – | – | 7.14 | 7.60 | 6.18 | 6.27 | – | – | 7.04 | 7.90 | – | – | –
13 | COc1ccc2cc1Oc1ccc(cc1)C[C@H]1c3cc(c(OC)cc3CCN1C)Oc1c(OC)c(OC)cc3c1[C@H](C2)N(C)CC3 [OU-0032506, Tetrandrine] | 5.68 | 5.34 | 11.59 | 8.93 | 7.92 | 5.95 | – | – | 10.07 | 7.33 | – | – | –
14 | CC(C)NCC(O)c1ccc(NS(C)(=O)=O)cc1 (stereo not shown) [OU-0032507, Sotalol HCl] | 4.31 | 4.58 | 15.87 | 9.07 | 3.77 | 2.90 | – | – | 8.24 | 3.55 | – | – | –
15 | O=C1NC[C@@H](CCC2CCCCC2)N[C@H]1Cc1cc(F)cc(F)c1 [OU-0032508] | – | – | 20.49 | 21.97 | 14.00 | 12.40 | – | – | 20.38 | 23.85 | – | – | –
16 | CCCC[C@H]1CNC(=O)[C@H](Cc2cc(F)cc(F)c2)N1 [OU-0032509] | – | – | 27.36 | 24.02 | 14.12 | 18.21 | – | – | 23.40 | 20.61 | – | – | –
